Results reported in PubChem BioAssay AID328 (DTP/NCI, 2004).
“And” between values parts separate entries of the source, which are not always exact repeats. Identical values can stand only once. Inconclusive results and toxic doses are left out. The calls were made as follows: active = survival T/C of 150% or more; inactive = T/C below 125% in these data.

System: BDF1 mice, P388 leukemia ip, median survival T/C
Test: NCI In Vivo Anticancer Drug Screen. Data for tumor model P388 Leukemia (intraperitoneal) in B6D2F1 (BDF1) mice
Conditions: endpoint: median survival time, higher = longer survival
Procedure, shortened: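 Transplantable tumour in mice; compound vs vehicle dosing; survival scored; ratio of treated to control reported.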

[1] = dose: 100.0 mg/kg/injection, schedule: Q01DX009 (ip), vehicle: saline with Tween-80
[2] = dose: 200.0 mg/kg/injection, schedule: Q01DX009 (ip), vehicle: saline with Tween-80
[3] = dose: 50.0 mg/kg/injection, schedule: Q01DX009 (ip), vehicle: saline with Tween-80

Measured: T/C

CC1CC(C)(C)CC2CC(C(=O)O)(C(=O)O)CC12 (stereo not drawn)
inactive: dose: 25.0 mg/kg/injection, schedule: Q04DX003 (ip), vehicle: saline sonified 110 % of control | dose: 50.0 mg/kg/injection, schedule: Q04DX003 (ip), vehicle: saline sonified 100 % of control | dose: 100.0 mg/kg/injection, schedule: Q04DX003 (ip), vehicle: saline sonified 100 % of control

c1ccc(Sc2cccc3ccccc23)cc1
inactive: [1] 100 % of control | [2] 104 % of control | dose: 400.0 mg/kg/injection, schedule: Q01DX009 (ip), vehicle: saline with Tween-80 104 % of control

CCC(C)C(=O)/C=C/c1ccccc1 (stereo not drawn)
inactive: [3] 96 % of control | [1] 107 % of control | [2] 114 % of control

CC1OC(OC2CCCc3c(O)c4c(c(O)c32)C(=O)c2ccccc2C4=O)CC(N)C1O (stereo not drawn)
inactive: dose: 0.25 mg/kg/injection, schedule: Q01DX009 (ip), vehicle: water 110 % of control | dose: 0.5 mg/kg/injection, schedule: Q01DX009 (ip), vehicle: water 105 % of control | dose: 1.0 mg/kg/injection, schedule: Q01DX009 (ip), vehicle: water 98 % of control | dose: 2.0 mg/kg/injection, schedule: Q01DX009 (ip), vehicle: water 110 % of control and 115 % of control | dose: 4.0 mg/kg/injection, schedule: Q01DX009 (ip), vehicle: water 108 % of control and 113 % of control | dose: 8.0 mg/kg/injection, schedule: Q01DX009 (ip), vehicle: water 108 % of control | dose: 16.0 mg/kg/injection, schedule: Q01DX009 (ip), vehicle: water 105 % of control

Cc1ccc2c(Nc3ccc(NS(C)(=O)=O)cc3)c3ccccc3nc2c1C
inactive: dose: 8.8 mg/kg/injection, schedule: Q04DX003 (ip), vehicle: saline with Tween-80 118 % of control | dose: 25.0 mg/kg/injection, schedule: Q01DX009 (ip), vehicle: saline with Tween-80 114 % of control
active: dose: 1.78 mg/kg/injection, schedule: Q01DX009 (ip), vehicle: saline with Tween-80 156 % of control | dose: 4.0 mg/kg/injection, schedule: Q01DX009 (ip), vehicle: saline with Tween-80 167 % of control | dose: 5.56 mg/kg/injection, schedule: Q01DX009 (ip), vehicle: saline with Tween-80 196 % of control | dose: 6.0 mg/kg/injection, schedule: Q01DX009 (ip), vehicle: saline with Tween-80 187 % of control | dose: 6.25 mg/kg/injection, schedule: Q01DX009 (ip), vehicle: saline with Tween-80 185 % of control | dose: 8.33 mg/kg/injection, schedule: Q01DX009 (ip), vehicle: saline with Tween-80 186 % of control | dose: 12.5 mg/kg/injection, schedule: Q01DX009 (ip), vehicle: saline with Tween-80 233 % of control and 247 % of control | dose: 13.2 mg/kg/injection, schedule: Q04DX003 (ip), vehicle: saline with Tween-80 154 % of control | dose: 18.7 mg/kg/injection, schedule: Q01DX009 (ip), vehicle: saline with Tween-80 288 % of control | dose: 20.0 mg/kg/injection, schedule: Q01DX009 (ip), vehicle: other 219 % of control | dose: 20.0 mg/kg/injection, schedule: Q04DX003 (ip), vehicle: saline with Tween-80 168 % of control | dose: 22.0 mg/kg/injection, schedule: Q04DX003 (ip), vehicle: saline with Tween-80 186 % of control | dose: 30.0 mg/kg/injection, schedule: Q04DX003 (ip), vehicle: saline with Tween-80 177 % of control | dose: 33.0 mg/kg/injection, schedule: Q04DX003 (ip), vehicle: saline with Tween-80 227 % of control | dose: 50.0 mg/kg/injection, schedule: Q04DX003 (ip), vehicle: saline with Tween-80 231 % of control | dose: 75.0 mg/kg/injection, schedule: Q04DX003 (ip), vehicle: saline with Tween-80 218 % of control | dose: 100.0 mg/kg/injection, schedule: Q04DX003 (ip), vehicle: saline with Tween-80 259 % of control | dose: 200.0 mg/kg/injection, schedule: Q04DX003 (ip), vehicle: saline with Tween-80 272 % of control

CCNC(C)(C)C(SSS)c1ccco1 (stereo not drawn)
inactive: dose: 100.0 mg/kg/injection, schedule: Q04DX003 (ip), vehicle: gum acacia 100 % of control and 116 % of control | dose: 134.0 mg/kg/injection, schedule: Q01DX009 (ip), vehicle: gum acacia 100 % of control | dose: 200.0 mg/kg/injection, schedule: Q04DX003 (ip), vehicle: gum acacia 109 % of control | dose: 400.0 mg/kg/injection, schedule: Q04DX003 (ip), vehicle: gum acacia 91 % of control and 122 % of control

CS(=O)(=O)CC(O)(c1ccccc1)c1ccccn1 (stereo not drawn)
inactive: [3] 90 % of control | [1] 89 % of control | [2] 89 % of control
